Earlier results in publication doi:10.1101/2023.05.15.540887, “Comparative analysis of drug-like EP300/CREBBP acetyltransferase inhibitors” (bioRxiv, 2023).

Assays:
Design in all cases: method as in ref 29 (a number printed in a supplementary file, which may have a reference list of its own: not looked up in the article's list)
SK-MEL-5 = conditions: Melanoma SK-MEL-5; highest log conc -4.0; NCI-60 screen data; cited from earlier work
SW-620 = conditions: Colon SW-620; highest log conc -4.0; NCI-60 screen data; cited from earlier work
MDA-MB-468 = conditions: Breast MDA-MB-468; highest log conc -4.0; NCI-60 screen data; cited from earlier work
UACC-257 = conditions: Melanoma UACC-257; highest log conc -4.0; NCI-60 screen data; cited from earlier work
MCF7 = conditions: Breast MCF7; highest log conc -4.0; NCI-60 screen data; cited from earlier work
SF-268 = conditions: CNS SF-268; highest log conc -4.0; NCI-60 screen data; cited from earlier work
PC-3 = conditions: Prostate PC-3; highest log conc -4.0; NCI-60 screen data; cited from earlier work
HL-60(TB) = conditions: Leukemia HL-60(TB); highest log conc -4.0; NCI-60 screen data; cited from earlier work
OVCAR-3 = conditions: Ovarian OVCAR-3; highest log conc -4.0; NCI-60 screen data; cited from earlier work
UACC-62 = conditions: Melanoma UACC-62; highest log conc -4.0; NCI-60 screen data; cited from earlier work
MOLT-4 = conditions: Leukemia MOLT-4; highest log conc -4.0; NCI-60 screen data; cited from earlier work
DU-145 = conditions: Prostate DU-145; highest log conc -4.0; NCI-60 screen data; cited from earlier work
NCI-H322M = conditions: Non-SmallCellLung NCI-H322M; highest log conc -4.0; NCI-60 screen data; cited from earlier work
HOP-62 = conditions: Non-SmallCellLung HOP-62; highest log conc -4.0; NCI-60 screen data; cited from earlier work
A549/ATCC = conditions: Non-SmallCellLung A549/ATCC; highest log conc -4.0; NCI-60 screen data; cited from earlier work
NCI/ADR-RES = conditions: Ovarian NCI/ADR-RES; highest log conc -4.0; NCI-60 screen data; cited from earlier work
IGROV1 = conditions: Ovarian IGROV1; highest log conc -4.0; NCI-60 screen data; cited from earlier work
UO-31 = conditions: Renal UO-31; highest log conc -4.0; NCI-60 screen data; cited from earlier work
SK-MEL-28 = conditions: Melanoma SK-MEL-28; highest log conc -4.0; NCI-60 screen data; cited from earlier work
HCT-15 = conditions: Colon HCT-15; highest log conc -4.0; NCI-60 screen data; cited from earlier work
RXF393 = conditions: Renal RXF393; highest log conc -4.0; NCI-60 screen data; cited from earlier work

| SMILES | GI50 AVGDATA (SK-MEL-5) | GI50 AVGDATA (SW-620) | GI50 AVGDATA (MDA-MB-468) | GI50 AVGDATA (UACC-257) | GI50 AVGDATA (MCF7) | GI50 AVGDATA (SF-268) | GI50 AVGDATA (PC-3) | GI50 AVGDATA (HL-60(TB)) | GI50 AVGDATA (OVCAR-3) | GI50 AVGDATA (UACC-62) | GI50 AVGDATA (MOLT-4) | GI50 AVGDATA (DU-145) | GI50 AVGDATA (NCI-H322M) | GI50 AVGDATA (HOP-62) | GI50 AVGDATA (A549/ATCC) | GI50 AVGDATA (NCI/ADR-RES) | GI50 AVGDATA (IGROV1) | GI50 AVGDATA (UO-31) | GI50 AVGDATA (SK-MEL-28) | GI50 AVGDATA (HCT-15) | further results |
| --- | --- | --- | --- | --- | --- | --- | --- | --- | --- | --- | --- | --- | --- | --- | --- | --- | --- | --- | --- | --- | --- |
| COC(=O)N1c2ccc3c(nc(Cc4ccccc4)n3[C@H]3CCC[C@H](C(=O)O)C3)c2CC[C@@H]1C [FT-6876] | -4.99 | -4.33 | -5.42 | -4.83 | -6.94 | -4.56 | -5.25 | -5.5 | -4.88 | -5.68 | -4.84 | -4.03 | -4.82 | -4.95 | -4.56 | -4.19 | -4.68 | -5.54 | -4.88 | -4.79 | GI50 AVGDATA (RXF393): -4.91 |
| Cc1sc2c(c1C)C(c1ccc(Cl)cc1)=N[C@@H](CC(=O)OC(C)(C)C)c1nnc(C)n1-2 [JQ-1] | -6.47 | -5.39 | -6.95 | -6.83 | -7.22 | -5.33 | -5.96 | -7.52 | -6.3 | -7.16 | -5.74 | -5.07 | -6.53 | -6.92 | -6.5 | -6.4 | -6.19 | -7.52 | -6.4 | -6.8 | GI50 AVGDATA (RXF393): -6.13 |
| CO[C@H]1CC[C@H](n2c([C@@H]3CCCC(=O)N3c3ccc(F)c(F)c3)nc3cc(-c4c(C)noc4C)ccc32)CC1 [inobrodib] | -5.24 | -4.72 | -5.4 | -5.59 | -6.2 | -4.83 | -5.46 | -6.07 | -4.98 | -5.6 | -4.77 | -4.77 | -4.94 | -5.35 | -4.93 | -4.87 | -5.34 | -5.79 | -4.93 | -5.33 | GI50 AVGDATA (RXF393): -5.32 |
